Earlier results, collected in patent publication US7612214B2, “Organic amine salts of glutamic acid derivatives and their application” (Ajinomoto Co., Inc., priority 2003, dated 2009).
Where “and” joins values, the source holds several entries; their conditions need not be identical. Equal values may be shown once.

Settings: (2S,4S) isomer derived from the natural plant; literature report (Vleggaar et al.)

N[C@@H](C[C@@](O)(Cc1c[nH]c2ccccc12)C(=O)O)C(=O)O [(2S,4S) isomer, (2S,4S)-2-amino-4-carboxy-4-hydroxy-5-(3-indolyl)pentanoic acid]
degree of sweetness: 800 times of sucrose and 1400 times of sucrose
